Reference: publication PMC2954314 (European Journal of Pharmaceutical Sciences, 2010)
“Also recorded” adds a separate entry of the source. Structures can show the parent of a compound that is named as a salt.

Key:
μ opioid receptor = μ opioid receptor (Rattus norvegicus, UniProt P33535); test: Opioid receptor competition binding, [3H]DAMGO, rat brain membranes
δ opioid receptor [1] = target: δ opioid receptor (Rattus norvegicus, UniProt P33533); assay type: binding
κ opioid receptor [2] = target: κ opioid receptor (Cavia porcellus, UniProt P41144); test: Opioid receptor competition binding, [3H]U69,593, guinea pig brain membranes
mice [3] = test: Rotarod test of motor coordination after s.c. administration; assay type: in vivo, mouse; conditions: 10 mg/kg (dose range 1.25–10 mg/kg), 30 min
mice [4] = test: Tail-flick test after s.c. administration; assay type: in vivo; conditions: Mus musculus, sc, 0.5 h, read-out: ED50 Tail-flick test
mice [5] = test: Hot-plate test after s.c. administration; assay type: in vivo; conditions: Mus musculus, sc, 0.5 h, read-out: ED50 Hot-plate test
κ opioid receptor [6] = conditions: read-out: Ki κ; ref Spetea et al., 2005; cited from earlier work
δ opioid receptor [7] = conditions: read-out: Ki δ; ref Spetea et al., 2005; cited from earlier work

Which Ki (μ opioid receptor) does the source give for `COc1ccc2c3c1O[C@@]1(Cc4ccccc4)C(=O)C=C[C@@]4(OC)[C@@H](C2)N(C)CC[C@]314` [Compound 3, 5β-Benzyl-14-methoxycodeinone hydrochloride] here?
The Ki was 34.1 ± 6 nM.

What about the Ki (δ opioid receptor [1]) of the same molecule?
The Ki was greater than 10000 nM.

What about the Ki (κ opioid receptor [2]) of the same molecule?
The Ki was 1890 ± 453 nM.

What does the source list for `CN1CC[C@]23c4c5ccc(O)c4O[C@H]2[C@@H](O)C=C[C@H]3[C@H]1C5` [Morphine, Morphine hydrochloride]?
Effect on motor coordination (rotarod latencies) (mice [3]): significant effect; also recorded: dose-dependent suppressive effects on motor coordination with significance; ED50 (mice [4]): 2.29 mg/kg; ED50 (mice [5]): 2.63 mg/kg

Which Ki (κ opioid receptor [6]) does the source give for `COc1ccc2c3c1O[C@H]1C(=O)CC[C@@]4(O)[C@@H](C2)N(C)CC[C@]314` [oxycodone] here?
Its Ki is […].

What about the Ki (δ opioid receptor [7]) of the same molecule?
Its Ki is […].
